Where “and” joins values, the source holds several entries; their conditions need not be identical. Equal values may be shown once.
Target: T1, wt-HVGH TtIleRS2 (Thermus thermophilus, UniProt P56690)
T1 construct: hexa-histidine tag (pET28b(+)) (N); made in house; host or cells: E. coli Rosetta2 (DE3)
T1 sequence (P56690 1-1043): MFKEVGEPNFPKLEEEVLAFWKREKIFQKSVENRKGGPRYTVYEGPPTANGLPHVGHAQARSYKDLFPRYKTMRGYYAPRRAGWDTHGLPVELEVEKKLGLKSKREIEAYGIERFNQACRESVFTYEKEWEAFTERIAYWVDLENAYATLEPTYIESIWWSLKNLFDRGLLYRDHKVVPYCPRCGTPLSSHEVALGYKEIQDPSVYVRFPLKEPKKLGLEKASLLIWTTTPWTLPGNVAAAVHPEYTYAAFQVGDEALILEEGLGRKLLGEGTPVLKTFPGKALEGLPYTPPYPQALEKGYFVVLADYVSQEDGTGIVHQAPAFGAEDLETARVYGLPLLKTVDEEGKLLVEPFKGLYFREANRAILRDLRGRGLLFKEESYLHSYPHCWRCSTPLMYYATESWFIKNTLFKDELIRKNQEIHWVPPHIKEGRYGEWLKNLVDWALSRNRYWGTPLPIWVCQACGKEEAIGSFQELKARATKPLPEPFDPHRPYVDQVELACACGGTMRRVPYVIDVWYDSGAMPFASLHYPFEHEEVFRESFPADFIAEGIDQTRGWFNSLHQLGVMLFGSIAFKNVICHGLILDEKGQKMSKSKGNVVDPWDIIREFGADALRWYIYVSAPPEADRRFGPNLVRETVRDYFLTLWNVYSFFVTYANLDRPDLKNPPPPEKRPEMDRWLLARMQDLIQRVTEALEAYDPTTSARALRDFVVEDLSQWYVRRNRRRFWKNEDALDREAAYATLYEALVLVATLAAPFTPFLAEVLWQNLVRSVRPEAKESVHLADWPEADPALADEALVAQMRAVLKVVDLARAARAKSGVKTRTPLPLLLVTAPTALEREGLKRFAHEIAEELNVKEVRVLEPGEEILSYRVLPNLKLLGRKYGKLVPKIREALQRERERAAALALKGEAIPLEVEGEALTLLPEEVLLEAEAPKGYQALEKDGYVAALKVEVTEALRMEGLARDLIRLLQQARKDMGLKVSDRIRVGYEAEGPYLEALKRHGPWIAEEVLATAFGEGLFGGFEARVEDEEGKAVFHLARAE
Assay: ATP-PPi exchange assay, mupirocin inhibition of amino acid activation
Assay type: biochemical
Method: L-Ile and ATP concentrations ranged from 1/10 KM to 10 KM values. When measuring the KI towards one of the substrates, the other was held in saturation (concentrations at least 10 KM). The aliquots of the reaction mixture (1–2.5 μl) were quenched in 2 volumes of 500 mM NaOAc pH = 4.5, 0.1% SDS, and formed ^32P-ATP was separated from the remaining ^32P-PPi by thin-layer chromatography on Polygram CEL 300 PEI UV254 TLC plates (Macherey-Nagel, cat: 801063) using 750 mM KH2PO4 pH=3.5, 4 M urea buffer. Visualization and quantification of the signals was performed using a Typhoon Phosphoimager 5 (General Electric) and accompanying ImageQuant™ TL software (SV: 10.2). The kinetic constants were determined using a global fit option of the competitive inhibition model of GraphPad Prism 6 software (SV: 6.01). All experiments were performed in triplicates. The kcat was determined by dividing the maximal velocity, VM, with the used enzyme concentration. […]
variable substrate (ATP or Ile) was varied in the range of 0.1 KM to 10 KM. The other substrate (Ile or ATP) was kept in excess at 5 to 10 KM. Data were globally fitted to the competitive inhibition model using GraphPad prism 6.01 for Windows software. The values represent the average value ± SD of three independent experiments. Source data are provided as a Source Data file.

Structure (SMILES): C/C(=C\C(=O)OCCCCCCCCC(=O)O)C[C@@H]1OC[C@H](C[C@@H]2O[C@H]2[C@@H](C)[C@H](C)O)[C@@H](O)[C@H]1O [mupirocin]
- Ki (KI (MUP)ATP, amino acid activation assay, ATP as variable substrate, average ± SD of three independent experiments): 200 ± 10 nM
- Ki (KI (MUP)Ile, amino acid activation step, ATP/PPi exchange assay, Ile varied, ATP saturating, average ± SD of three independent experiments): 200 ± 10 nM
- Ki (KI, single replicates, mupirocin inhibition towards Ile, GraphPad Prism output, Repl1-Repl3): 190 nM and 200 nM (3×)
- initial velocity vo (c(mupirocin) 0.25 μM, c(ATP) 0.5 mM): 0.00545 mM/min and 0.00625 mM/min and 0.00878 mM/min
- initial velocity vo (c(mupirocin) 0.25 μM, c(ATP) 1.0 mM): 0.00989 mM/min and 0.00933 mM/min and 0.0106 mM/min
- initial velocity vo (c(mupirocin) 0.25 μM, c(ATP) 2.5 mM): 0.01904 mM/min and 0.0219 mM/min and 0.02129 mM/min
- initial velocity vo (c(mupirocin) 0.25 μM, c(ATP) 5.0 mM): 0.03233 mM/min and 0.03269 mM/min and 0.0316 mM/min
- initial velocity vo (c(mupirocin) 0.25 μM, c(ATP) 10.0 mM): 0.04434 mM/min and 0.04682 mM/min and 0.04511 mM/min
- initial velocity vo (c(mupirocin) 0.25 μM, c(ATP) 15.0 mM): 0.0472 mM/min and 0.05017 mM/min and 0.05086 mM/min
- initial velocity vo (c(mupirocin) 0.25 μM, c(Ile) 5.0 μM): 0.00612 mM/min and 0.00672 mM/min and 0.00733 mM/min
- initial velocity vo (c(mupirocin) 0.25 μM, c(Ile) 15.0 μM): 0.0169 mM/min and 0.01596 mM/min
- initial velocity vo (c(mupirocin) 0.5 μM, c(ATP) 0.5 mM): 0.00322 mM/min and 0.00373 mM/min and 0.00334 mM/min
- initial velocity vo (c(mupirocin) 0.5 μM, c(ATP) 1.0 mM): 0.00754 mM/min and 0.00751 mM/min and 0.00747 mM/min
- initial velocity vo (c(mupirocin) 0.5 μM, c(ATP) 2.5 mM): 0.01415 mM/min and 0.01653 mM/min and 0.01647 mM/min
- initial velocity vo (c(mupirocin) 0.5 μM, c(ATP) 5.0 mM): 0.02341 mM/min and 0.024 mM/min and 0.02727 mM/min
- initial velocity vo (c(mupirocin) 0.5 μM, c(ATP) 10.0 mM): 0.03666 mM/min and 0.03855 mM/min and 0.03894 mM/min
- initial velocity vo (c(mupirocin) 0.5 μM, c(ATP) 15.0 mM): 0.04188 mM/min and 0.04379 mM/min and 0.0434 mM/min
- initial velocity vo (c(mupirocin) 0.5 μM, c(Ile) 5.0 μM): 0.00349 mM/min and 0.00358 mM/min and 0.00422 mM/min
- initial velocity vo (c(mupirocin) 0.5 μM, c(Ile) 15.0 μM): 0.01037 mM/min and 0.01135 mM/min and 0.01134 mM/min
- initial velocity vo (c(mupirocin) 1.0 μM, c(ATP) 1.0 mM): 0.00403 mM/min and 0.00377 mM/min and 0.00474 mM/min
- initial velocity vo (c(mupirocin) 1.0 μM, c(ATP) 2.5 mM): 0.00961 mM/min and 0.01146 mM/min and 0.01193 mM/min
- initial velocity vo (c(mupirocin) 1.0 μM, c(ATP) 5.0 mM): 0.01986 mM/min and 0.02034 mM/min and 0.01615 mM/min
- initial velocity vo (c(mupirocin) 1.0 μM, c(ATP) 10.0 mM): 0.02901 mM/min and 0.02831 mM/min and 0.02535 mM/min
- initial velocity vo (c(mupirocin) 1.0 μM, c(ATP) 15.0 mM): 0.03565 mM/min and 0.03315 mM/min and 0.03301 mM/min
- initial velocity vo (c(mupirocin) 1.0 μM, c(Ile) 5.0 μM): 0.0018 mM/min and 0.00161 mM/min and 0.00213 mM/min
- initial velocity vo (c(mupirocin) 1.0 μM, c(Ile) 15.0 μM): 0.00627 mM/min and 0.00604 mM/min and 0.00608 mM/min
- initial velocity vo (c(mupirocin) 1.0 μM, c(Ile) 50.0 μM): 0.01613 mM/min and 0.01634 mM/min and 0.01627 mM/min
- initial velocity vo (c(mupirocin) 2.5 μM, c(ATP) 2.5 mM): 0.00405 mM/min and 0.00296 mM/min and 0.00525 mM/min
- initial velocity vo (c(mupirocin) 2.5 μM, c(ATP) 5.0 mM): 0.00797 mM/min and 0.00918 mM/min and 0.01147 mM/min
- initial velocity vo (c(mupirocin) 2.5 μM, c(ATP) 10.0 mM): 0.01533 mM/min and 0.01708 mM/min and 0.0168 mM/min
- initial velocity vo (c(mupirocin) 2.5 μM, c(ATP) 15.0 mM): 0.02441 mM/min and 0.0241 mM/min and 0.02037 mM/min
- initial velocity vo (c(mupirocin) 5.0 μM, c(ATP) 2.5 mM): 0.00309 mM/min and 0.0024 mM/min and 0.0026 mM/min
- initial velocity vo (c(mupirocin) 5.0 μM, c(ATP) 5.0 mM): 0.00527 mM/min and 0.00709 mM/min and 0.00659 mM/min
- initial velocity vo (c(mupirocin) 5.0 μM, c(ATP) 10.0 mM): 0.01002 mM/min and 0.00944 mM/min and 0.01333 mM/min
- initial velocity vo (c(mupirocin) 5.0 μM, c(ATP) 15.0 mM): 0.01409 mM/min and 0.01329 mM/min
- initial velocity vo (c(mupirocin) 5.0 μM, c(Ile) 5.0 μM): 0.00137 mM/min and 0.00102 mM/min and 0.00071 mM/min
- initial velocity vo (c(mupirocin) 5.0 μM, c(Ile) 15.0 μM): 0.00213 mM/min and 0.00316 mM/min and 0.00307 mM/min
